The record followed here is patent publication US20140088114A1, “FUSED BICYCLIC KINASE INHIBITORS” (OSI Pharmaceuticals ,LLC, priority 2011, published 2014).

In this assay the test system is Karpas-299 cells. The experiment in a line: Karpas-299 cell proliferation assay (CellTiter-Glo). The following applies: Homo sapiens, 72 h; Karpas-299 cell line (NPM-ALK), 3 days incubation, at least duplicate experiments; read-out: Prolif. IC50. It is filed as cell-based. The protocol: The effect of inhibitors on the proliferation of Karpas-299 cells (DSMZ no. ACC 31) was determined using the following protocol. Karpas-299 cells were plated in 96-well white tissue culture treated plates (Corning 3917) in growth medium (RPMI, 10% FCS) at a density of 5000 cells/well in a total volume of 135 μL and incubated at 37° C., 5% CO2, 95% humidity overnight. The following day, one-tenth volume of a 10× concentration of compounds was added to the wells in an 8-point dilution series. Compounds were serially diluted (1:4) in DMSO from a 10 mM stock solution prior to dilution in growth media to the 10× working concentrations (5% DMSO). Final concentration of DMSO in compound-treated wells was 0.5%. Control wells containing growth media or growth media/0.5% DMSO were included in all test plates. The typical dilution range is 10 μM to 0.1 nM. Once the compounds were added to the cells, plates were incubated for 3 days at 37° C., 5% CO2 at 95% humidity. After 72 hours, all cells and reagents were equilibrated to room temperature and 15 μL of CellTiter-Glo reagent (Promega #G7573) was added to each well. Plates were shaken on a platform for 10 minutes at room temperature prior to reading luminescence. The value of the signal of the control wells was set as 100% growth and growth inhibition was expressed as percent of control. IC50 values were determined from the percent of control data using a standard four-parameter curve fit equation.
The IC50 values of exemplary compounds of the present invention determined in a cell proliferation assay using the Karpas-299 cell line according to the procedures described herein in at least duplicate experiments are abbreviated as follows and are shown in Table 5: A, IC50≦0.03 μM; B, 0.03 μM<IC50≦0.1 μM; C, 0.1 μM<IC50≦1 μM; D, 1 μM<IC50≦3 μM; ND, not determined. The Example # of Table 5 corresponds to the compound example number as illustrated in the Examples section.
The Karpas-299 cell line has a t(2;5) chromosomal translocation and expresses the NPM-ALK fusion protein, resulting in constitutively active ALK. […] Ther. 6(12):3314-22 (2007)]. With this “ALK-driven” cell line by ALK, the cell proliferation IC50 values can thus be used as surrogate for the p-ALK cell mechanistic IC50 values.
Take `COc1ccc(F)c(Cl)c1[C@@H](CF)c1c[nH]c2ncc(-c3cnn([C@H]4CC[C@H](O)CC4)c3)cc12` [Example 3, trans-4-(4-{3-[(1S)-1-(2-chloro-3-fluoro-6-methoxyphenyl)-2-fluoroethyl]-1H-pyrrolo[2,3-b]pyridin-5-yl}-1H-pyrazol-1-yl)cyclohexanol]: the IC50 fell in the range of 30 to 100 nM.

Turning to `O[C@H]1CC[C@H](n2cc(-c3cnc4[nH]cc([C@@H](CF)c5c(OC(F)F)ccc(F)c5Cl)c4c3)cn2)CC1` [Example 4, trans-4-[4-(3-{(1R)-1-[2-Chloro-6-(difluoromethoxy)-3-fluorophenyl]-2-fluoroethyl}-1H-pyrrolo[2,3-b]pyridin-5-yl)-1H-pyrazol-1-yl]cyclohexanol], the IC50 was 100 to 1000 nM.

On to `Cn1cc(-c2cnc3[nH]cc(C(CF)c4c(Cl)ccc(F)c4Cl)c3c2)cn1` (stereo not shown) [Example 1, 3-[1-(2,6-Dichloro-3-fluorophenyl)-2-fluoroethyl]-5-(1-methyl-1H-pyrazol-4-yl)-1H-pyrrolo[2,3-b]pyridine], for which the IC50 lay within 100 to 1000 nM.

As for `O[C@H]1CC[C@H](n2cc(-c3cnc4[nH]cc([C@H](CF)c5c(OC(F)F)ccc(F)c5Cl)c4c3)cn2)CC1` [Example 5, trans-4-[4-(3-{(1S)-1-[2-Chloro-6-(difluoromethoxy)-3-fluorophenyl]-2-fluoroethyl}-1H-pyrrolo[2,3-b]pyridin-5-yl)-1H-pyrazol-1-yl]cyclohexanol], the concentration for half-maximal inhibition (IC50) was ≤ 30 nM.
